Assay results as given in PMC6613030, “LC-ESI-MS/MS Phenolic Profile of Volutaria lippii (L.) Cass. Extracts and Evaluation of Their In Vitro Antioxidant, Antiacetylcholinesterase, Antidiabetic, and Antibacterial Activities” (Evidence-based Complementary and Alternative Medicine : eCAM, 2019).
Marks after values point to notes of the source that are not given here.

Legend:
pancreatic α-amylase = target: T1, pancreatic α-amylase (Sus scrofa, UniProt P00690); assay: biochemical
T1 construct: purchased Merck (Sigma-Aldrich, Steinheim, Germany)
T1 sequence (P00690 16-511): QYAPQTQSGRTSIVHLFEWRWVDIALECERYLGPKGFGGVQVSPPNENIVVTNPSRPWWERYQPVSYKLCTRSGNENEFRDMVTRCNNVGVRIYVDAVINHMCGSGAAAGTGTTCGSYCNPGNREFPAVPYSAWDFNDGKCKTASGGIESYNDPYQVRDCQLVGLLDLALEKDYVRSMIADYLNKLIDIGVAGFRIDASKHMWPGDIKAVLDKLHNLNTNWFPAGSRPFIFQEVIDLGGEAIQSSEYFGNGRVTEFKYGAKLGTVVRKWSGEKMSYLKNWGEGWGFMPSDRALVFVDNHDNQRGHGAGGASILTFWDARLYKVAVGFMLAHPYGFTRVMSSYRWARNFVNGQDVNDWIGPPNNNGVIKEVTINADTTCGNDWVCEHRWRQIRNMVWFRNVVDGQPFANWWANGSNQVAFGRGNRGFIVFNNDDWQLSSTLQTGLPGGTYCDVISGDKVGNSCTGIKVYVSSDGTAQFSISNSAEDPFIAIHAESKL
Protocol: The in vitroα-amylase inhibitory assay of all fractions was performed by the previous method described by Gella et al.. […] Percentage inhibition (PI) was calculated by the following expression:(3) PI%=Acontrol – Asample/Acontrol×100 where Acontrol is the absorbance of the control and Asample is the absorbance of the test sample.

[1] = DPPH radical scavenging assay; details: 30 min in the dark, absorbance at 517 nm
Protocol: The DPPH radical scavenging activity of different fractions of V. lippii was evaluated following the procedure described by Les et al. [14]. […] The final concentrations in the reaction's mixture were 0.005-0.5 mg/mL. Each mixture was shaken and allowed in the dark for 30 min at room temperature. The blank was prepared as above without any extract and the BHT was used as positive control. […] The PI was calculated using the following equation:(1) PI%=Ablank – Asample/Ablank×100 where Ablank is the absorbance of the blank and Asample is the absorbance of the test sample.
The calibration curve for scavenging percentage against extract concentration was plotted and the IC50 (half maximal inhibitory concentration) value of each sample was established.

[2] = Reducing power assay (FRAP); details: effective concentration at which the absorbance is 0.5 (700 nm)
Protocol: The reducing power of all fractions was evaluated using the procedure of Yildirim et al., and BHT was used as positive control. A 1 mL of different concentrations of each V. lippii sample (5, 10, 25, 50,100 μg/mL) was mixed with 2.5 mL of 1% potassium ferricyanide and 2.5 mL of sodium phosphate buffer (0.2 M, pH= 6.6). The mixture was incubated for 20 min at 50°C and then 2.5 mL of 10% trichloroacetic acid were added and centrifuged for 10 minutes. 2.5 mL of the supernatant were mixed with 0.5 mL of ferric chloride solution (0.1%) and 2.5 mL of distilled water. The absorbance of the mixture was measured at 700 nm.

Bacillus thuringiensis = assay: Antibacterial activity, agar disc diffusion; assay type: cell-based; details: 10 μg / disc, positive control
Protocol: (§1) The V. lippii fractions were assessed against a five bacterial strains: Gram-negative: Salmonella enterica (CIP 8039) and Escherichia coli (ATCC 8739), Gram-positive: Staphylococcus aureus (ATCC 6538), Bacillus thuringiensis, and Enterococcus faecalis (ATCC 29212). Bacteria not obtained from an ATCC collection were acquired from the Microbiology Department, Faculty of Science, University of Sfax (Tunisia). Bacterial strains were cultured in Mueller-Hinton agar (MHA) for 24 h at 37°C.
(§2) The disc diffusion method was employed for the determination of antibacterial activities of V. lippii fractions according to the method described by Berghe and Vlietinck. Antibacterial activities were evaluated by measuring the diameters of the inhibition zones against the test organisms and compared to penicillin (10 μg per disk) as the positive control. Tests were carried out in triplicate.

[3] = test system: Enterococcus faecalis (ATCC 29212); assay: Antibacterial activity, agar disc diffusion; assay type: cell-based; details: 10 μg / disc, positive control
Protocol: as §1, §2

[4] = test system: Escherichia coli (ATCC 8739); assay: Antibacterial activity, agar disc diffusion; assay type: cell-based; details: 10 μg / disc, positive control
Protocol: as §1, §2

[5] = test system: Staphylococcus aureus (ATCC 6538); assay: Antibacterial activity, agar disc diffusion; assay type: cell-based; details: 10 μg / disc, positive control
Protocol: as §1, §2

Molecule: C[C@H]1O[C@H](O[C@H]2[C@H](O)[C@@H](O)[C@@H](O[C@H]3[C@H](O)[C@@H](O)C(O)O[C@@H]3CO)O[C@@H]2CO)[C@H](O)[C@@H](O)[C@@H]1N[C@H]1C=C(CO)[C@@H](O)[C@H](O)[C@H]1O (stereo partly drawn) [Acarbose, acarbose]
- inhibition at 2.85 µg/mL (pancreatic α-amylase; concentration 2.85 μg/mL): 29.8 ± 0.07%
- inhibition at 5.71 µg/mL (pancreatic α-amylase; concentration 5.71 μg/mL): 51.52 ± 0.02%
- inhibition at 11.42 µg/mL (pancreatic α-amylase; concentration 11.42 μg/mL): 86.62 ± 0.04%

Molecule: Cc1cc(C(C)(C)C)c(O)c(C(C)(C)C)c1 [BHT, butylated hydroxytoluene]
- DPPH IC50 [1]: 13.00±0.57^a μg/mL
- Reducing power EC50 [2]: 43.35±0.95^a μg/mL

Molecule: penicillin
- Inhibition zone in diameter (Bacillus thuringiensis): 18.0±0.4^d mm
- Inhibition zone in diameter [3]: 16.0±0.2^c mm
- Inhibition zone in diameter [4]: 16.3±0.1^d mm
- Inhibition zone in diameter [5]: 14.1±0.5^c mm
